Experimental findings from patent US10351594B2, “Process for preparing compounds having triple activities of thrombolysis, antithrombosis, and radical scavenging” (Shanghai Lumosa Therapeutics Co., Ltd., priority 2013, dated 2019) are described below.

Test [1] deals with formation of thrombus (rat arteriovenous bypass). In words: Antithrombotic activity via intravenous administration, rat arteriovenous bypass cannula with thread. Type of test: in vivo, male SD rats. The following applies: for wet weight of thrombus: n = 10. An excerpt:
A cannula was composed of 3 segments. The middle segment has a length of 80 mm and an inner diameter of 3.5 mm. […] The pre-weighed, 60 mm in length thread was placed in the middle segment of the polyethylene tube. Both ends of the wider tube sheathed the un-narrowed ends of two polyethylene tubes respectively (0.5 mm of the thread was restrained by one of the segment to fix the thread). The cannula was filled with a heparin solution in normal saline (50 IU/kg) through the tip end by using an injector and was ready for use. 200-220 g male SD rats were anesthetized with 20% urethane solution (6 mL/kg, ip). Anesthetized rats were fixed in a supine position, and the left external jugular vein was separated and penetrated with a suture at the proximal and distal ends respectively, and the distal end was ligated. An incision was carefully made on the exposed left external jugular vein, and the tip end without thread-restraining of the bypass cannula prepared as described above was inserted into the proximal end of the open incision in the left external jugular vein. A precise amount of heparin in normal saline (50 IU/kg) was injected through the tip at the other end by using an injector. Then, the injector was replaced, and precise amount of drug was injected by the same way. At this moment, without removing the injector from the ethylene tube, the right common carotid artery was separated, and the proximal end was clipped by an artery clip. The right common carotid artery was penetrated with a suture at the proximal and distal ends respectively, and the distal end was ligated. An incision was carefully cut across the right common carotid artery near the artery clip. The injector was pulled out of the polyethylene tube through the tip, and the tip of the polyethylene tube was then inserted into the proximal end of the artery incision. Both ends of the bypass cannula were fixed to the artery or vein with #4 sutures. The artery clip was then removed to allow blood to flow from the artery to the vein through the bypass cannula. A rat arteriovenous bypass thrombolysis model was thus established. The process was timed from the beginning of circulation, the thread attached with thrombus was taken out from the bypass cannula after 15 minutes and accurately weighed. The difference in the mass of the thread before and after was determined as the wet weight of the thrombus, which was statistically analyzed and used to evaluate the in vivo antithrombotic activities of the compounds. The wet weight of the thrombus was expressed as average value and standard deviation (x±SD). The drug administration method is intravenous injection. The blank control was normal saline solution, and the dose was 1 mL/kg. The positive control was aspirin, and the dose was 9 mg/kg. The dose of compounds 5Aa-p of the present invention was 0.1 nmol/kg. The method was the same as in example 3. The drug administration method is intravenous injection. The blank control was normal saline solution, and the dose was 3 mL/kg. The positive control was aspirin, and the dose was 9 mg/kg.

Another test relates to stroke rats. Put plainly: Therapeutic effect in stroke rats (microthrombus injected into the brain, treated at once): Zealonga score and TTC infarction volume. Type of test: in vivo, SD male rats. The conditions noted are these: for Neural function scores: Zealonga method, 24 hours after awake, n = 9; for Percentage of infarction volume: cerebral infarction, TTC, n = 7. The procedure: SD male rats (280-300 g) were randomly divided to UK positive control group at a dose of 20000 IU/kg, blank control group with normal saline solution, compound control group with PAK at a dose of 5 μmol/kg, and compound 5Ak group at a dose of 1 μmol/kg (high), 0.1 μmol/kg (medium), and 0.01 μmol/kg (low). A 10% chloral hydrate solution (400 mg/kg) was injected intraperitoneally into rats for anesthesia. […] The 10 μl blood drawn was placed in a 1 mL EP vial and kept at RT for 30 min to allow the coagulation of blood and then transferred into a −20° C. refrigerator for 1 hour to allow the formation of solid coagulation. 1 hour later, the blood clots were taken out, 1 mL normal saline was added therein, and then the blood clots were broken into relatively uniform microthrombus by a steel spatula. The microthrombus suspension was then transferred into a 1 mL injector for use. […] The common jugular vein was separated, and then injected with UK at the dose of 20000 IU/kg, normal saline solution, or compound 5Ak at the dose of 1 μmol/kg. The vein was ligated. 3 drops of penicillin was dropped on the wound. The wound was sewed, and animals were waited for awake.
24 hours after the rats were awake, the degree of damage in neural function was evaluated by the Zealonga method. […] The evaluation results were statistically analyzed and subjected to t-test.
After the rats were awake for 24 hours and assessed for their degree of damage in neural function by Zealonga method, they were anesthetized with urethane followed by immediate decapitation and removal of the brain. Brain tissues were kept in a −20° C. refrigerator for 2 hours, and coronal sections of about 2 mm were successively sliced from the prefrontal end for a total of 5 sections and then placed into a 2% TTC solution to incubate without light at 37° C. for 30 min. The color change in brain sections was observed: normal brain tissues were stained red by TTC, while ischemic brain tissues appeared in white. Photographs were taken by using a digital camera and processed with image statistics software, and the volume of infarction in brain tissues and the area of normal brain tissues in the coronal sections were calculated. The ratio of the cerebral infarction volume of each group was statistically calculated and subject to t-test.

The subject of test [2] is formation of thrombus (rat arteriovenous bypass). Put plainly: Antithrombotic activity via intravenous administration, rat arteriovenous bypass cannula with thread. Type of test: in vivo, male SD rats. The following applies: n = 10.
The mark [3] stands for this setting: rat, 5Aa-p (i.v.) 0.1 nmol/kg, 15 minutes.

“Also recorded” adds a separate entry of the source. Marks after values point to notes of the source that are not given here.

Consider “3S-6,7-dihydroxy-1,1-dimethyl-1,2,3,4-tetrahydro-isoquinoline-3-acyl-Lys(Pro-Ala-Ala) [Compound 5Aa]”, for which the “wet weight of thrombus” value in test [1] (setting [3]) is given as 54.04 ± 6.43^a mg.

“3S-6,7-dihydroxy-1,1-dimethyl-1,2,3,4-tetrahydro-isoquinoline-3-acyl-Lys(Pro-Ala-Gly) [Compound 5Ag]”: the “wet weight of thrombus” value in test [1] (setting [3]) is given as 54.28 ± 3.57^a mg.

For “3S-6,7-dihydroxy-1,1-dimethyl-1,2,3,4-tetrahydro-isoquinoline-3-acyl-Lys(Pro-Ala-Val) [Compound 5Ab]”, the “wet weight of thrombus” value in test [1] (setting [3]) is 54.17 ± 6.61^a mg.

On to `C[C@H](NC(=O)[C@@H]1CCCN1)C(=O)N[C@@H](Cc1c[nH]c2ccccc12)C(=O)NCCCC[C@H](NC(=O)[C@@H]1Cc2cc(O)c(O)cc2C(C)(C)N1)C(=O)O` [Compound 5Ac, 3S-6,7-dihydroxy-1,1-dimethyl-1,2,3,4-tetrahydro-isoquinoline-3-acyl-Lys(Pro-Ala-Trp)], for which the “wet weight of thrombus” value in test [1] (setting [3]) is 52.93 ± 3.96^a mg.

Take `C[C@H](NC(=O)[C@@H]1CCCN1)C(=O)N[C@@H](Cc1ccc(O)cc1)C(=O)NCCCC[C@H](NC(=O)[C@@H]1Cc2cc(O)c(O)cc2C(C)(C)N1)C(=O)O` [Compound 5Ad, 3S-6,7-dihydroxy-1,1-dimethyl-1,2,3,4-tetrahydro-isoquinoline-3-acyl-Lys(Pro-Ala-Tyr)]: the “wet weight of thrombus” value in test [1] (setting [3]) is listed as 51.91 ± 4.97^a mg.

In the case of `C[C@H](NC(=O)[C@@H]1CCCN1)C(=O)N1CCC[C@H]1C(=O)NCCCC[C@H](NC(=O)[C@@H]1Cc2cc(O)c(O)cc2C(C)(C)N1)C(=O)O` [Compound 5Ae, 3S-6,7-dihydroxy-1,1-dimethyl-1,2,3,4-tetrahydro-isoquinoline-3-acyl-Lys(Pro-Ala-Pro)], the “wet weight of thrombus” value in test [1] (setting [3]) is 57.20 ± 6.43^a mg.

As to `C[C@H](NC(=O)[C@@H]1CCCN1)C(=O)N[C@@H](Cc1ccccc1)C(=O)NCCCC[C@H](NC(=O)[C@@H]1Cc2cc(O)c(O)cc2C(C)(C)N1)C(=O)O` [Compound 5Af, 3S-6,7-dihydroxy-1,1-dimethyl-1,2,3,4-tetrahydro-isoquinoline-3-acyl-Lys(Pro-Ala-Phe)], in test [1] (setting [3]), the “wet weight of thrombus” value is given as 54.01 ± 4.25^a mg.

For the molecule `C[C@H](NC(=O)[C@@H]1CCCN1)C(=O)N[C@@H](CO)C(=O)NCCCC[C@H](NC(=O)[C@@H]1Cc2cc(O)c(O)cc2C(C)(C)N1)C(=O)O` [Compound 5Ah, 3S-6,7-dihydroxy-1,1-dimethyl-1,2,3,4-tetrahydro-isoquinoline-3-acyl-Lys(Pro-Ala-Ser)], in test [1] (setting [3]), the “wet weight of thrombus” value is listed as 50.67 ± 3.71^a mg.

For the molecule `CC[C@H](C)[C@H](NC(=O)[C@H](C)NC(=O)[C@@H]1CCCN1)C(=O)NCCCC[C@H](NC(=O)[C@@H]1Cc2cc(O)c(O)cc2C(C)(C)N1)C(=O)O` [Compound 5Ai, 3S-6,7-dihydroxy-1,1-dimethyl-1,2,3,4-tetrahydro-isoquinoline-3-acyl-Lys(Pro-Ala-Ile)], the “wet weight of thrombus” value in test [1] (setting [3]) is reported as 56.12 ± 5.55^a mg.

In the case of `C[C@H](NC(=O)[C@@H]1CCCN1)C(=O)N[C@H](C(=O)NCCCC[C@H](NC(=O)[C@@H]1Cc2cc(O)c(O)cc2C(C)(C)N1)C(=O)O)[C@@H](C)O` [Compound 5Aj, 3S-6,7-dihydroxy-1,1-dimethyl-1,2,3,4-tetrahydro-isoquinoline-3-acyl-Lys(Pro-Ala-Thr)], the “wet weight of thrombus” value in test [1] (setting [3]) is 50.56 ± 3.96^a mg.

For the molecule `C[C@H](NC(=O)[C@@H]1CCCN1)C(=O)N[C@@H](CCCCN)C(=O)NCCCC[C@H](NC(=O)[C@@H]1Cc2cc(O)c(O)cc2C(C)(C)N1)C(=O)O` [Compound 5Ak, 3S-6,7-dihydroxy-1,1-dimethyl-1,2,3,4-tetrahydro-isoquinoline-3-acyl-Lys(Pro-Ala-Lys)], in the test on stroke rats (5Ak 1, 0.1, 0.01 μmol/kg), the “Therapeutic effect in stroke rats, result in words” value is “effectively prevent the brain ischemia rats from occurrence of dyskinesia and cerebral infarction; also recorded: dose dependent”. Moreover, the Neural function scores in the test with stroke rats (5Ak 0.01 μmol/kg) was 2.30 ± 0.95^c; in the test with stroke rats (5Ak 0.1 μmol/kg) it was 1.40 ± 1.07^b; in the test with stroke rats (5Ak 1 μmol/kg) it was 1.10 ± 0.74^a. The “Percentage of infarction volume” value is given as 18.05 ± 5.77^c % with stroke rats (5Ak 0.01 μmol/kg), 9.88 ± 2.52^b % in the test with stroke rats (5Ak 0.1 μmol/kg) and 3.44 ± 1.99^a % in the test on stroke rats (5Ak 1 μmol/kg). The “wet weight of thrombus” value is on record as 52.16 ± 2.02^a mg in test [1] (Table 4, 5Ak 0.1 nmol/kg i.v.); 51.93 ± 2.74^a mg in test [1] (setting [3]); 61.91 ± 3.27^c mg in test [2] (Table 4, 5Ak 0.001 nmol/kg i.v.); 57.34 ± 3.73^b mg in test [2] (Table 4, 5Ak 0.01 nmol/kg i.v.). In test [1] (rat, intravenous, 5Ak 0.1 nmol/kg (dose-effect: 0.1, 0.01, 0.001 nmol/kg)), the “Antithrombotic activity, result in words” value is listed as “effectively inhibit the formation of thrombus; also recorded: obvious dose-effect relationship”.

As to `CC(C)C[C@H](NC(=O)[C@H](C)NC(=O)[C@@H]1CCCN1)C(=O)NCCCC[C@H](NC(=O)[C@@H]1Cc2cc(O)c(O)cc2C(C)(C)N1)C(=O)O` [Compound 5Al, 3S-6,7-dihydroxy-1,1-dimethyl-1,2,3,4-tetrahydro-isoquinoline-3-acyl-Lys(Pro-Ala-Leu)], the “wet weight of thrombus” value in test [1] (setting [3]) was 54.20 ± 3.93^a mg.

Regarding `C[C@H](NC(=O)[C@@H]1CCCN1)C(=O)N[C@@H](CCC(N)=O)C(=O)NCCCC[C@H](NC(=O)[C@@H]1Cc2cc(O)c(O)cc2C(C)(C)N1)C(=O)O` [Compound 5Am, 3S-6,7-dihydroxy-1,1-dimethyl-1,2,3,4-tetrahydro-isoquinoline-3-acyl-Lys(Pro-Ala-Gln)], the “wet weight of thrombus” value in test [1] (setting [3]) is listed as 58.14 ± 2.30^a mg.

Regarding `C[C@H](NC(=O)[C@@H]1CCCN1)C(=O)N[C@@H](CC(N)=O)C(=O)NCCCC[C@H](NC(=O)[C@@H]1Cc2cc(O)c(O)cc2C(C)(C)N1)C(=O)O` [Compound 5An, 3S-6,7-dihydroxy-1,1-dimethyl-1,2,3,4-tetrahydro-isoquinoline-3-acyl-Lys(Pro-Ala-Asn)], the “wet weight of thrombus” value in test [1] (setting [3]) is 55.11 ± 4.76^a mg.

Regarding `C[C@H](NC(=O)[C@@H]1CCCN1)C(=O)N[C@@H](CC(=O)O)C(=O)NCCCC[C@H](NC(=O)[C@@H]1Cc2cc(O)c(O)cc2C(C)(C)N1)C(=O)O` [Compound 5Ao, 3S-6,7-dihydroxy-1,1-dimethyl-1,2,3,4-tetrahydro-isoquinoline-3-acyl-Lys(Pro-Ala-Asp)], the “wet weight of thrombus” value in test [1] (setting [3]) is on record as 48.34 ± 3.29^a mg.

As for `C[C@H](NC(=O)[C@@H]1CCCN1)C(=O)N[C@@H](CCC(=O)O)C(=O)NCCCC[C@H](NC(=O)[C@@H]1Cc2cc(O)c(O)cc2C(C)(C)N1)C(=O)O` [Compound 5Ap, 3S-6,7-dihydroxy-1,1-dimethyl-1,2,3,4-tetrahydro-isoquinoline-3-acyl-Lys(Pro-Ala-Glu)], the “wet weight of thrombus” value in test [1] (setting [3]) is 49.97 ± 6.32^a mg.
